Reference: ChEMBL document CHEMBL1201862, “PubChem BioAssay data set” (2004)
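Each compound was tested at five concentrations against cells in 96-well plates for 48 hours. GI50 = concentration required for 50% inhibition of growth.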 Activity calls are given as the source filed them. Cut-off read from the data, not from the text of the source: active = GI50 up to about 1.1 µM and inactive = higher.

How the values were obtained:
Experiment in all cases: NCI anticancer screen, dose series, 48 h
U-251 = tested on: U-251
SK-OV-3 = tested on: SK-OV-3
NCI-H522 = tested on: NCI-H522
M14 = tested on: M14
OVCAR-5 = tested on: OVCAR-5
SK-MEL-2 = tested on: SK-MEL-2
OVCAR-3 = tested on: OVCAR-3
UACC-257 = tested on: UACC-257
UO-31 = tested on: UO-31
LOX IMVI = tested on: LOX IMVI
KM12 = tested on: KM12
DU-145 = tested on: DU-145
OVCAR-4 = tested on: OVCAR-4
ACHN = tested on: ACHN
HCT-15 = tested on: HCT-15
NCI/ADR-RES = tested on: NCI/ADR-RES
BT-549 = tested on: BT-549
HOP-62 = tested on: HOP-62
SNB-75 = tested on: SNB-75

| SMILES | GI50 (U-251) | GI50 (SK-OV-3) | GI50 (NCI-H522) | GI50 (M14) | GI50 (OVCAR-5) | GI50 (SK-MEL-2) | GI50 (OVCAR-3) | GI50 (UACC-257) | GI50 (UO-31) | GI50 (LOX IMVI) | GI50 (KM12) | GI50 (DU-145) | GI50 (OVCAR-4) | GI50 (ACHN) | GI50 (HCT-15) | GI50 (NCI/ADR-RES) | GI50 (BT-549) | GI50 (HOP-62) | GI50 (SNB-75) |
| --- | --- | --- | --- | --- | --- | --- | --- | --- | --- | --- | --- | --- | --- | --- | --- | --- | --- | --- | --- |
| COC(=O)c1ccc(NC(=O)c2cc3c(cc2Br)OCO3)o1 | > 100 µM (inactive) | > 100 µM (inactive) | 15.7 µM (inactive) | > 100 µM (inactive) | > 100 µM (inactive) | > 100 µM (inactive) | > 100 µM (inactive) | > 100 µM (inactive) | > 100 µM (inactive) | > 100 µM (inactive) | > 100 µM (inactive) | > 100 µM (inactive) | > 100 µM (inactive) | > 100 µM (inactive) | 94 µM | 59 µM (inactive) | 39.5 µM (inactive) | > 100 µM (inactive) | – |
| COc1cccc(CN(C(=O)/C=C\Sc2ccccc2)C(C)(C)C)c1 | > 100 µM (inactive) | > 100 µM (inactive) | – | 84.7 µM (inactive) | > 100 µM (inactive) | 54.8 µM (inactive) | 52.5 µM (inactive) | 41 µM (inactive) | 48.3 µM (inactive) | 32.5 µM (inactive) | > 100 µM (inactive) | > 100 µM (inactive) | 96.8 µM (inactive) | > 100 µM (inactive) | 44.6 µM | 58.9 µM (inactive) | 90.2 µM (inactive) | > 100 µM (inactive) | – |
| CCOC(=O)N1C(=S)C(C(=O)OC)(C(=O)OC)N=C1C | > 100 µM (inactive) | > 100 µM (inactive) | – | > 100 µM (inactive) | > 100 µM (inactive) | > 100 µM (inactive) | > 100 µM (inactive) | > 100 µM (inactive) | > 100 µM (inactive) | > 100 µM (inactive) | > 100 µM (inactive) | > 100 µM (inactive) | > 100 µM (inactive) | > 100 µM (inactive) | > 100 µM | > 100 µM (inactive) | > 100 µM (inactive) | > 100 µM (inactive) | > 100 µM (inactive) |
| CCOC(=O)CCN1C(=O)c2c(NC(=O)C(=O)O)cccc2S1(=O)=O | > 100 µM (inactive) | > 100 µM (inactive) | > 100 µM (inactive) | > 100 µM (inactive) | > 100 µM (inactive) | > 100 µM (inactive) | – | > 100 µM (inactive) | > 100 µM (inactive) | > 100 µM (inactive) | > 100 µM (inactive) | > 100 µM (inactive) | > 100 µM (inactive) | > 100 µM (inactive) | > 100 µM | > 100 µM (inactive) | > 100 µM (inactive) | > 100 µM (inactive) | – |
| Cc1ccc(/N=N/C(=N\c2ccc(F)cc2)c2ccc(N(CCC#N)CCC#N)cc2)cc1 | 36.2 µM (inactive) | > 100 µM (inactive) | 19.2 µM (inactive) | > 100 µM (inactive) | > 100 µM (inactive) | 62.7 µM (inactive) | 86.3 µM (inactive) | 30.3 µM (inactive) | > 100 µM (inactive) | – | 33.3 µM (inactive) | > 100 µM (inactive) | 60.3 µM (inactive) | > 100 µM (inactive) | > 100 µM | > 100 µM (inactive) | 67.8 µM (inactive) | > 100 µM (inactive) | > 100 µM (inactive) |
| Cn1cnc2c(NCc3ccccc3)nc(NCCO)nc21 [OLOMOUCINE] | 64.4 µM (inactive) | > 95.5 µM (inactive) | 51.4 µM (inactive) | 78.9 µM (inactive) | 53 µM (inactive) | 98.9 µM (inactive) | – | > 95.3 µM (inactive) | 31.4 µM (inactive) | 24 µM (inactive) | 35 µM (inactive) | 34.1 µM (inactive) | 94.2 µM (inactive) | 35.9 µM (inactive) | 41.3 µM | > 93.8 µM (inactive) | 53.1 µM (inactive) | 29.3 µM (inactive) | 21.3 µM (inactive) |
| CC1(C)COC(c2cccc(C3=NC(C)(C)CO3)c2Br)=N1 | > 100 µM (inactive) | – | – | > 100 µM (inactive) | > 100 µM (inactive) | > 100 µM (inactive) | – | > 100 µM (inactive) | > 100 µM (inactive) | > 100 µM (inactive) | > 100 µM (inactive) | > 100 µM (inactive) | > 100 µM (inactive) | > 100 µM (inactive) | > 100 µM | > 100 µM (inactive) | > 100 µM (inactive) | > 100 µM (inactive) | 3.05 µM (inactive) |
| CC(C)=CC1C(C(=O)OCc2cc3c(cc2Cl)OCO3)C1(C)C (stereo not given) | 12.6 µM (inactive) | – | 15.1 µM (inactive) | 36.7 µM (inactive) | 39.2 µM (inactive) | 6.4 µM (inactive) | 20.6 µM (inactive) | 12.6 µM (inactive) | 46.1 µM (inactive) | 16.6 µM (inactive) | 27.7 µM (inactive) | > 100 µM (inactive) | 49.8 µM (inactive) | 28.7 µM (inactive) | 30.1 µM | 42.8 µM (inactive) | 63 µM (inactive) | 22.7 µM (inactive) | 26.9 µM (inactive) |
